Values of other authors as cited in US5811400A, “Peptide derivatives with δ opioid receptor antagonist or mixed μ agδ antagonist effects” (Astra AB, priority 1994, dated 1998).

Test system: μ opioid receptors
Conditions: GPI assay

In the case of `Oc1ccc2c3c1O[C@H]1c4[nH]c5ccccc5c4C[C@@]4(O)[C@@H](C2)N(CC2CC2)CC[C@]314` [naltrindole], the “μ antagonist properties (Ke)” value is listed as 29 nM.
